From paper PMC4350332 (Oncotarget, 2014) come the findings set out here.

The subject of assay [1] is p(Ser^293)E1α levels in PC-3 cells. Description: Phospho(Ser293) E1α MSD ELISA in PC-3 cells. It counts as cell-based. Particulars: for Degree of suppression of p(Ser^293)E1α levels (plateau), reduction compared to DMSO control: MSD ELISA; for IC50: Homo sapiens, PD marker (ELISA). The method, then:
Phospho(Ser^293) E1α MSD ELISA assay: All reagents were purchased from Meso Scale Discovery (Maryland, USA) unless otherwise stated. Following compound treatment, cells were treated with lysis buffer (TBS pH 7.4, 1% Tween-20, 1 mM EGTA, 1 mM EDTA, 1 mM NaF, protease and phosphatase inhibitor cocktails (Roche)) on ice and the lysates added to standard bind 96 well MSD plates which were pre-loaded with custom phospho(Ser^293)E1α ‘capture’ antibody (2 μg/ml in TBST containing 3% (w/v) blocker A) (Genescript) and blocked with 3% (w/v) blocker A, followed by a 1 h incubation at RT. The wells were then washed 3X with TBST (0.05% tween 20) followed by the addition of 2 μg/ml E1α ‘detection’ antibody (2 μg/ml) (Abcam) and a further 1 h incubation at RT. The wells were again washed 3X with TBST followed by the addition of 1 μg/ml Goat anti-mouse Sulfotag antibody, and a further TBST wash prior to the addition of 2X read buffer T. The chemiluminescent signal was then measured on a MSD sector imager 2400.
For orientation: In an ELISA, binding on a coated surface is turned into a signal by an enzyme label.

Assay [2] concerns PDC activity in K562 cells. Description: Cellular PDC activity assay, K562. It is filed as cell-based. Particulars: 20 μM VER-246608 or […] Nov3r. The method, then:
Cellular PDC activity was determined using a commercial assay kit (Abcam) as per the manufacturer's instructions. Briefly, PC-3 and K562 cell suspensions at a density of 1×10^6 and 1.5×10^6, respectively, were transferred to 96 well plates (250 μL per well). Cells were pre-treated with compound or DMSO for 1 h in a CO2incubator at 37°C followed by cell lysis in 250 μL of a 9:1 dilution of assay kit detergent (containing 20 mM NaF and 40 μM of the PDK inhibitor VER-246550) for 10 min on ice. The cellular debris was then pelleted at 1000g for 10 min. A 200 μL aliquot of each lysate was then transferred to the immunocapture microplate. PDC reaction rates were determined from the slope of the reaction curves and expressed as a percentage of the vehicle (DMSO) control values. […]
transformed and additional cancer cell lines. A, The indicated cell lines were seeded into […]
relevant media containing either 2 g/L D-glucose or D-galactose for 96 h. Cell mass was determined using the sulforhodamine B assay. Results are expressed as the percentage change vs DMSO control values for cells incubated in D-glucose containing media. […]
analysis of pyruvate dehydrogenase (PDH) activity in cell lysates using a commercially available ELISA-based assay kit (Abcam). Results are expressed as a percentage of the PDH reaction rate in DMSO treated cells. […]

In assay [3] the test system is PDC activity in PC-3 cells. Briefly: Cellular PDC activity assay, PC-3. It is filed as cell-based. Particulars: magnitude greater for VER-246608. As for the experimental part: Cellular PDC activity was determined using a commercial assay kit (Abcam) as per the manufacturer's instructions. Briefly, PC-3 and K562 cell suspensions at a density of 1×10^6 and 1.5×10^6, respectively, were transferred to 96 well plates (250 μL per well). Cells were pre-treated with compound or DMSO for 1 h in a CO2incubator at 37°C followed by cell lysis in 250 μL of a 9:1 dilution of assay kit detergent (containing 20 mM NaF and 40 μM of the PDK inhibitor VER-246550) for 10 min on ice. The cellular debris was then pelleted at 1000g for 10 min. A 200 μL aliquot of each lysate was then transferred to the immunocapture microplate. PDC reaction rates were determined from the slope of the reaction curves and expressed as a percentage of the vehicle (DMSO) control values.

Assay [4] relates to PC-3, K562, Jurkat and MDA-MD-453 cell lines. Briefly: Growth in D-glucose or D-galactose media (Sulforhodamine B). It counts as cell-based. To be noted: 20 μM, 96 h.
Method: Experiments were performed in triplicate (A & C) or quadruplicate (B). Error bars represent standard deviation of the mean (*, P < 0.01).
The next assay concerns PC-3 cells. Description: Potentiation assay with cancer therapeutic agents, PC-3. It counts as cell-based. The method, then:
The cells were then incubated for 120 h followed by cell mass determination using the Sulforhodamine B assay. […] Drug interactions were analyzed by the combination index (CI) method based on the method described by Chou. CI values <0.9 indicates synergism, 0.9 to 1.1 additivity, and >1.1 antagonism. The data was expressed in the form of Fa-CI simulation plot generated using calcusyn software (Biosoft). Potentiation assays were carried out as described previously.

Another assay deals with Jurkat cells. Briefly: 13C-NMR metabolite analysis in Jurkat cells. It counts as cell-based. Particulars: 20 μM.
Another assay relates to HFF cells. Briefly: Sulforhodamine B cytotoxicity, HFF cells. It counts as cell-based, human. Particulars: all of the conditions tested, 120 h. The method, then: Compound cytotoxicity was determined using the Sulforhodamine B assay for cells cultured as a monolayer as described previously (45). For spheroid growth experiments, PC-3 cells were seeded (500 cells/well) into 96 well round bottom plates (Corning Costar 7007) in RPMI-1640 media containing 2.5% (w/v) Matrigel (BD Biosciences). […] Spheroid volumes were determined by obtaining diameter measurements from images taken on a Zeiss Axiovert 200M inverted microscope using the axiovision software. […]
oncogenic KRAS(G13D) and BRAF(V600E) mutations. A and B, Cell lines harboring a KRAS(G13D) mutation (HCT-116, DLD-1 and MDA-MB-231), wild-type KRAS (MDA-MB-453) or a BRAF(V600E) mutation (A2058 and A375) were seeded into 96 well plates. The […]
DMSO in different culture conditions for 120 h. Cell mass was determined using the suforhodamine B assay. Norm = glucose-free media supplemented with 10% FCS and 2 g/L D-glucose; VLG (very low glucose) = 0.1 g/L D-glucose; LS (low serum) = 0.5% FCS.
Experiments were performed in triplicate. Error bars represent standard deviation of the […]
(1 picture or pasted object on this page, not shown here)

For another assay, the system named is panel of 97 kinases. Description: scanEDGE kinase selectivity screen (DiscoverX). It counts as binding. To be noted: 10 μM. An excerpt:
A proprietary active site-directed competition binding assay was employed to quantitatively measure interactions between test compounds and the individual kinases on the panel. Results were expressed as a percentage of control binding, with 0% indicating complete binding of the test compound.

Where two headings read alike, the source gives them in different places.

Method for Jurkat cells: Jurkat cells (5 X 106) were pre-treated in RPMI-1640 media containing either DMSO or 20
μM VER-00246608 for 1 h. The cells were then pelleted and washed in PBS containing
DMSO/compound and re-suspended in glucose-free RPMI-1640 media containing 10% FCS
cell suspension was then transferred to a 5mm NMR tube and placed into the sample probe of
a Bruker DRX600 NMR spectrometer. The probe was pre-equilibrated to 37°C and shimmed
on a matched sample. Pulses were also calibrated on the matched sample. The sample
containing the Jurkat cells was rapidly shimmed and data acquisition initiated within 15
1D 13C NMR spectra (240ppm sweep width, 64k acquired points, 64 scans) were then
acquired at 10 minute intervals up to 2 h. The glucose and lactate peaks were converted to
concentrations by referencing to a cell-free reference sample containing the same
concentration of 1,6-13C-D-Glucose (11 mM).
D, Jurkat cells (5 X 106) were pre-treated in RPMI-
suspension in glucose-free RPMI-1640 media supplemented with 2 g/L 1,6-13C-D-Glucose followed by kinetic acquisition of 13C-NMR spectra at 10 min intervals. Representative curves from duplicate treatments are shown.

Consider `C[C@@H]1CN(C(=O)[C@](C)(O)C(F)(F)F)[C@@H](C)CN1C(=O)c1ccc(C#N)cc1` [Nov3r, reference compound], for which the “Degree of suppression of p(Ser^293)E1α levels (plateau), reduction compared to DMSO control” value in assay [1] (PC-3 cells) was “approximately 60%”. The “Increase in PDC activity” value in assay [2] and in assay [3] was “an increase in PDC activity” in each case.

Take `Cc1cnc(Cl)nc1-c1ccc(N(Cc2ccc(CNC(=O)C(F)F)cc2)C(=O)c2ccc(O)cc2O)cc1` [VER-246608]: the “Effect on growth in D-glucose or D-galactose containing media” value in assay [4] is “little to no effect”. Besides, the “Potentiation of the remaining three agents (BEZ235, Cisplatin and 3-Bromopyruvate)” value in the assay on PC-3 cells is “No evidence of potentiation”. Besides, the Potentiation of doxorubicin in the assay on PC-3 cells (PC-3 cells) is on record as 2 fold. In addition, in the assay with Jurkat cells, the “Decrease in the rate of D-glucose consumption” value came out at 23% and the “Decrease in the rate of L-lactate production” value was found to be 25%. Moreover, the “Activity against HFF cells” value with HFF cells is “largely inactive”. Besides, the IC50 in assay [1] (PC-3, read-out: p(Ser^293)E1α (10% FCS), IC50, 10% FCS) worked out at 1450 nM. The half-maximal inhibitory concentration (IC50) in assay [1] (PC-3 cells, 0% FCS, read-out: p(Ser^293)E1α (0% FCS), IC50) turned out to be 266 nM. Also, the “Reduction in p(Ser^293)E1α levels” value in assay [1] (PC-3, 10 and 20 μM, 24 h, D-glucose/L-glutamine-depleted media) was above 70%. For the same compound, the “Degree of suppression of p(Ser^293)E1α levels (plateau), reduction compared to DMSO control” value in assay [1] (PC-3 cells) is “complete suppression”. In assay [2], the “Increase in PDC activity” value is given as “an increase in PDC activity”. In addition, in the assay with panel of 97 kinases, the “Number of further kinases with ligand binding between 10 and 35% of control” value is on record as “seven”; the “Number of kinases with ligand binding reduced to ≤ 10% of control values” is given as “one”. For the same compound, at panel of 97 kinases (ligand binding reduced to ≤35% of control), the “Kinases on the panel with significant or partial binding” value amounted to 8%. Also, the “Increase in PDC activity” value in assay [3] is listed as “an increase in PDC activity”.

Broadly, the IC50 is the point on the concentration scale where inhibition reaches its midpoint.
